Ends that are not written are not given here.
Experiments:
nanoluciferase = test: Control: nanoluciferase enzyme activity after translation stopped by cycloheximide; assay type: biochemical; details: 1 µM added after translation stopped by CHX; n=8
Method: (§1) The following additional controls indicate that DPR-induced changes in fluorescence were caused by translation inhibition.
(§2) Supplementary Fig. 1. […]
(e) Nanoluciferase mRNA was translated in
the absence of DPRs, translation was stopped by cycloheximide (CHX), then 1 µM PR20
or GR20 were added and luminescence was monitored. n=8 independent experiments;
mean of normalized RLU ± SD. […]

[1] = test system: firefly luciferase enzyme; test: Control: firefly luciferase enzyme activity in RRL without mRNA; assay type: biochemical; details: 1 µM added after 120 s to 40 nM enzyme in RRL; n=6
Excerpt: as §1, §2

[2] = test system: translation in E. coli cell lysates; test: Nanoluciferase translation in E. coli cell lysate (NEBExpress); assay type: biochemical; details: n=3
Method: E. coli cell lysates (NEBExpress, NEB) were used to investigate bacterial translation inhibition by GR20 and PR20. We monitored the translation of an in vitro transcribed mRNA encoding a Shine-Dalgarno sequence preceding the nanoluciferase (Promega) open reading frame. The mRNA was prepared by in vitro transcription of a PCR-template obtained by amplifying the nanoluciferase open reading frame from the plasmid described in reference with the following primers: T7 + SD-forward: […], based on the pet28a+ plasmid and reverse: […]. […] Then 1 μl of water or different concentrations (10-100 μM) of PR20 or GR20 or 200 μM erythromycin were added and the plate was incubated at 37 °C for 5 min inside of an Infinite m1000 pro microplate reader (Tecan). Next, the nanoluciferase mRNA was added to the final concentration of 20 ng/μl in a 10-μl reaction. Translation reactions were incubated at 37 °C for 20 min, luminescence of the samples was continuously measured by the microplate reader to record the time course of protein synthesis. Time progress curves, obtained in the experiments, were processed in MS Excel, and the rate of change of the relative light units between 100 and 200 s was measured, the mean and SEM of three experiments is reported in column graph in Supplementary Fig. 2a.

total HEK293 RNA = test: DPR-induced RNA aggregation, turbidity OD600; assay type: physicochemical; details: for visible opalescence / OD600 change: 10 µM; for OD600 change / optical density relative to RNA alone: 100 ng/μl HEK293 RNA; for optical density relative to RNA alone: 0.2 to 1 µM, 20 min, room temperature
Method: To test whether arginine-containing DPR proteins cause mRNA aggregation at the DPR concentrations sufficient to inhibit protein synthesis (0.2 and 1 μM), we measured turbidity (optical density at 600 nm; OD600; similarly to[41]) of the solutions containing 100 ng/μl total HEK293 RNA. We incubated RNA with PR20, GR20, GP20 (control), or water for 20 min at room temperature. […] Optical density was measured using NanoDrop One (Thermo Scientific, Waltham, MA, USA).

[3] = test system: ribosomes on endogenous globin mRNAs in RRL; test: Polysome profiling of RRL translating endogenous mRNA; assay type: biochemical, rabbit; details: 4 μM PR20, 4 μM GR20, 1 mM GDPCP; 5 min
Method: Polysome profiles were obtained using RRL untreated with nuclease, so that it contained endogenous mRNA. 100 μl reactions containing 50% RRL (Green Hectare) 30 μM hemin (Sigma), 75 mM KCl, 0.5 mM MgCl2, 1 mM ATP, 0.2 mM GTP, 2.1 mg/ml creatine phosphate, 30 μM of L-amino acid mix, 15 mg/ml yeast tRNA, 6 mM BME and, when appropriate, translation inhibitors (4 μM PR20, 4 μM GR20, cycloheximide, 40 μM harringtonine, or 1 mM GDPCP with 1 mM MgCl2) were assembled on ice. To start translation, the reactions were warmed in a heat block at either 30 °C or 37 °C as noted. After 5 min, reactions were terminated by addition of 100 μl of ice-cold Stop Buffer (50 mM Hepes-KOH pH 7.4, 150 mM KOAc, 10 mM Mg(OAc)2, and 200 μg/ml cycloheximide). The stopped reactions were applied to 10–50% sucrose gradients in Gradient Buffer (50 mM Hepes-KOH pH 7.4, 150 mM KOAc, 10 mM Mg(OAc)2, 2 mM DTT, and 100 μg/ml cycloheximide) and spun in an SW-41 rotor (Beckman Coulter) at 197,568xg (avg) for 2 h at 4 °C. Gradients were pumped on a Gradient Station (BioComp Instruments) at a pump rate of 0.29 mm/min and the absorbance at 254 nm was measured by an Econo UV monitor (Biorad) zeroed with 10% sucrose-gradient buffer. The traces were output as CSV files and imported into GraphPad Prism, where the 80S peaks were aligned. Controls were highly reproducible day-to-day. Each experimental condition is shown compared to concurrent, uninhibited control.

[4] = test system: ribosomes on endogenous beta-globin mRNA in RRL; test: Toeprinting of 80S and 4-5-mer polysome fractions on beta-globin mRNA; assay type: biochemical, rabbit; details: for Ratio (START to CDS) / Normalized ratio START/ORF: 80S fraction, primer A, Fig. 2f independent repeat; for Normalized ratio START/ORF: no inhibitor = 1; for normalized ratio START to CDS, MEAN: 4-5-mer, primer B, mean of ten 20 bp windows
Method: Toeprinting analyses were carried out similarly to those in refs. [51],[74], using 80S and polysome (4–5-some) fractions collected from polysome profiles as described in “Polysome Profiles” except that reactions were doubled in size (200 μL), performed at 37 °C, and were stopped with ice-cold 1xAMV Buffer (50 mM Tris-HCl pH 8.3, 50 mM KCl, 5 mM MgCl2) with 200 μg/ml cycloheximide before being separated on at 10–35% sucrose gradient in 1xAMV buffer with 0.5 mM spermidine and 1 mM DTT. 600 μl of each fraction (80S or 4–5-mer) was supplemented with 10 mM DTT. Then 10 U of AMV reverse transcriptase (Promega), 120 nmol dNTPs, and 120 pmol of a 5'[6-carboxyfluorescein (FAM)]-labeled primer (IDT-DNA) were added. Two primers specific to the endogenous beta-globin mRNA in RRL were used in separate reactions: 5′-(FAM)-GGACTCGAAGAACCTCTG (as in ref. [74]) annealed 136 nucleotides downstream of the AUG or 5′-(FAM)-[…] annealed to the end of the 3'-UTR. Primers were extended at 37 °C for 30 min, and then the reaction were extracted in 1:1 phenol:chloroform, supplemented with 1/10 volume of 3 M sodium acetate pH 5.2, and precipitated with 2.5 volumes of 100% ethanol. Pellets were resuspended in 10 μl of deionized formamide (Applied Biosystems) with 1/20 volume of a 35-500 nucleotide orange-dye labeled DNA size standard (MCLab) and loaded onto a 96-well plate. The samples were sent for fragment analysis by capillary electrophoresis to the UMass Chan Medical School Molecular Biology Core Laboratory using an ABI3730XL DNA Fragment Analyzer with capillaries loaded with POP-7 polymer and with an injection voltage of 12.5 kV. Data collection was performed with GeneMapper software (ABI). Data were exported as.fsa files and were analyzed (aligning to ladder and background correction) in GeneMarker 3.0.1 software (SoftGenetics) running in demo mode. Screen captures of traces were taken and traces were integrated using the “Quantification” feature and manually adjusting sliders to include the desired nucleotide range.

Row | Compound | effect on nanoluciferase enzyme activity (nanoluciferase) | effect on firefly luciferase enzyme activity [1] | concentration needed to inhibit translation in E. coli lysate [2] [µM] | visible opalescence (total HEK293 RNA) | OD600 change (total HEK293 RNA) | optical density relative to RNA alone (total HEK293 RNA) | polysome profile, half-mer peaks [3] | site of ribosome accumulation, toe-printing of polysome fractions [4] | Ratio (START to CDS) [4] | Normalized ratio START/ORF [4] | normalized ratio START to CDS, MEAN ([4]; Fig. 2g) | normalized ratio START to CDS, MEAN ([4]; Fig. 2h independent repeat)
1 | PRPRPRPRPRPRPRPRPRPRPRPRPRPRPRPRPRPRPRPR [PR20] | do not affect enzyme activity | do not affect enzyme activity | ≥ 5 | did not induce visible opalescence | increased OD600 | did not increase optical density | appearance of half-mer peaks | accumulate at the start codon | 5.983 | 2.218 | 2.067 | 3.436
2 | N=C(N)NCCC[C@H](NC(=O)CNC(=O)[C@H](CCCNC(=N)N)NC(=O)CNC(=O)[C@H](CCCNC(=N)N)NC(=O)CNC(=O)[C@H](CCCNC(=N)N)NC(=O)CNC(=O)[C@H](CCCNC(=N)N)NC(=O)CNC(=O)[C@H](CCCNC(=N)N)NC(=O)CNC(=O)[C@H](CCCNC(=N)N)NC(=O)CNC(=O)[C@H](CCCNC(=N)N)NC(=O)CNC(=O)[C@H](CCCNC(=N)N)NC(=O)CNC(=O)[C@H](CCCNC(=N)N)NC(=O)CNC(=O)[C@H](CCCNC(=N)N)NC(=O)CNC(=O)[C@H](CCCNC(=N)N)NC(=O)CNC(=O)[C@H](CCCNC(=N)N)NC(=O)CNC(=O)[C@H](CCCNC(=N)N)NC(=O)CNC(=O)[C@H](CCCNC(=N)N)NC(=O)CNC(=O)[C@H](CCCNC(=N)N)NC(=O)CNC(=O)[C@H](CCCNC(=N)N)NC(=O)CNC(=O)[C@H](CCCNC(=N)N)NC(=O)CNC(=O)[C@H](CCCNC(=N)N)NC(=O)CNC(=O)[C@H](CCCNC(=N)N)NC(=O)CN)C(=O)O [GR20] | do not affect enzyme activity | do not affect enzyme activity | > 10 | did not induce visible opalescence | increased OD600 | did not increase optical density | appearance of half-mer peaks | accumulate within the open reading frame | 1.504 | 0.5576 | 0.4196 | 0.5964

— PMC9120013, “Ribosome inhibition by C9ORF72-ALS/FTD-associated poly-PR and poly-GR proteins revealed by cryo-EM” (Nature Communications, 2022)
